Test results reported in the NIST ThermoML archive (doi:10.1016/j.fluid.2017.09.014).

Assay: xn = mol fraction of the nth substance listed
Details: Vibrating tube method, x2 = 0.9503

O=S=O [sulfur dioxide] + O=C=O
Details | mass density [kg/m3]
272.65 K, 226 kPa, Gas | 4.8
272.65 K, 407 kPa, Gas | 8.5
272.65 K, 503 kPa, Gas | 10.6
272.65 K, 752 kPa, Gas | 16.2
272.65 K, 1013 kPa, Gas | 22.1
272.65 K, 1252 kPa, Gas | 27.9
272.65 K, 1506 kPa, Gas | 34.4
272.65 K, 1752 kPa, Gas | 40.9
272.65 K, 1998 kPa, Gas | 47.9
273.54 K, 25506 kPa, Liquid | 1065.1
273.54 K, 26999 kPa, Liquid | 1069.9
273.54 K, 29024 kPa, Liquid | 1076.3
273.54 K, 29514 kPa, Liquid | 1077.7
273.54 K, 30524 kPa, Liquid | 1080.9
273.54 K, 31975 kPa, Liquid | 1085.1
273.54 K, 32491 kPa, Liquid | 1086.7
273.54 K, 33027 kPa, Liquid | 1088.3
273.54 K, 33521 kPa, Liquid | 1089.7
273.54 K, 34032 kPa, Liquid | 1091.1
273.54 K, 34491 kPa, Liquid | 1092.3
273.54 K, 35043 kPa, Liquid | 1093.9
273.54 K, 35534 kPa, Liquid | 1095.1
273.54 K, 36045 kPa, Liquid | 1096.7
273.54 K, 36490 kPa, Liquid | 1097.6
273.54 K, 37047 kPa, Liquid | 1099
273.54 K, 37529 kPa, Liquid | 1100.5
273.54 K, 38033 kPa, Liquid | 1101.8
273.54 K, 38558 kPa, Liquid | 1103.1
273.54 K, 41723 kPa, Liquid | 1110.7
273.55 K, 20535 kPa, Liquid | 1047.9
273.55 K, 24032 kPa, Liquid | 1060.4
273.55 K, 24523 kPa, Liquid | 1061.9
273.55 K, 25039 kPa, Liquid | 1063.6
273.55 K, 26016 kPa, Liquid | 1066.9
273.55 K, 26484 kPa, Liquid | 1068.3
273.55 K, 27554 kPa, Liquid | 1071.7
273.55 K, 28041 kPa, Liquid | 1073
273.55 K, 28539 kPa, Liquid | 1074.9
273.55 K, 30026 kPa, Liquid | 1079.4
273.55 K, 30952 kPa, Liquid | 1082.2
273.55 K, 31482 kPa, Liquid | 1083.6
273.55 K, 38992 kPa, Liquid | 1104
273.55 K, 39553 kPa, Liquid | 1105.7
273.55 K, 40023 kPa, Liquid | 1106.6
273.55 K, 40508 kPa, Liquid | 1107.8
273.55 K, 41016 kPa, Liquid | 1109
273.56 K, 12509 kPa, Liquid | 1014.7
273.56 K, 13012 kPa, Liquid | 1017.2
273.56 K, 13506 kPa, Liquid | 1019.3
273.56 K, 17514 kPa, Liquid | 1036.2
273.56 K, 18049 kPa, Liquid | 1038.2
273.56 K, 18515 kPa, Liquid | 1040.1
273.56 K, 19000 kPa, Liquid | 1042.1
273.56 K, 19509 kPa, Liquid | 1044
273.56 K, 20028 kPa, Liquid | 1046
273.56 K, 21029 kPa, Liquid | 1049.7
273.56 K, 21519 kPa, Liquid | 1051.3
273.56 K, 21993 kPa, Liquid | 1053
273.56 K, 22501 kPa, Liquid | 1054.9
273.56 K, 23496 kPa, Liquid | 1058.4
273.56 K, 41601 kPa, Liquid | 1110.4
273.57 K, 9944 kPa, Liquid | 1001.9
273.57 K, 10516 kPa, Liquid | 1004.5
273.57 K, 11003 kPa, Liquid | 1007
273.57 K, 11502 kPa, Liquid | 1009.5
273.57 K, 12005 kPa, Liquid | 1012.2
273.57 K, 14518 kPa, Liquid | 1023.6
273.57 K, 14951 kPa, Liquid | 1025.4
273.57 K, 15999 kPa, Liquid | 1029.8
273.57 K, 16500 kPa, Liquid | 1031.9
273.57 K, 17024 kPa, Liquid | 1034.2
273.57 K, 23015 kPa, Liquid | 1056.6
273.58 K, 8503 kPa, Liquid | 993.8
273.58 K, 9008 kPa, Liquid | 996.7
273.58 K, 9518 kPa, Liquid | 999.7
273.58 K, 15602 kPa, Liquid | 1028.1
273.6 K, 4001 kPa, Liquid | 964.9
273.6 K, 5521 kPa, Liquid | 975.5
273.6 K, 6005 kPa, Liquid | 978.7
273.6 K, 6503 kPa, Liquid | 981.9
273.6 K, 7034 kPa, Liquid | 984.6
273.6 K, 7688 kPa, Liquid | 987.5
273.6 K, 8003 kPa, Liquid | 990.6
273.61 K, 4518 kPa, Liquid | 968.2
273.61 K, 5013 kPa, Liquid | 972.1
282.65 K, 800 kPa, Gas | 16.5
282.65 K, 1249 kPa, Gas | 26.3
282.66 K, 120 kPa, Gas | 2.5
282.66 K, 211 kPa, Gas | 4.3
282.66 K, 301 kPa, Gas | 6.1
282.66 K, 408 kPa, Gas | 8.5
282.66 K, 511 kPa, Gas | 10.6
282.66 K, 608 kPa, Gas | 12.3
282.66 K, 1009 kPa, Gas | 21.1
282.66 K, 1509 kPa, Gas | 32.8
282.66 K, 1705 kPa, Gas | 37.5
282.66 K, 1909 kPa, Gas | 42.7
282.66 K, 2010 kPa, Gas | 45.2
282.66 K, 2199 kPa, Gas | 50.5
282.66 K, 2508 kPa, Gas | 59.6
282.66 K, 2702 kPa, Gas | 65.5
282.66 K, 3008 kPa, Gas | 76
283.31 K, 27537 kPa, Liquid | 1038.9
283.31 K, 34500 kPa, Liquid | 1062.8
283.31 K, 35516 kPa, Liquid | 1065.8
283.31 K, 36037 kPa, Liquid | 1067.5
283.31 K, 36515 kPa, Liquid | 1068.6
283.31 K, 37578 kPa, Liquid | 1072.1
283.31 K, 38061 kPa, Liquid | 1073.3
283.32 K, 5005 kPa, Liquid | 910.4
